Results as given in patent US8546443B2, “Benzylic oxindole pyrimidines” (Boehringer Ingelheim International GmbH, priority 2010, dated 2013).

molecular target: T1, cytoplasmic kinase domain of human IGF-1R (IGF-1R-GST) (Homo sapiens, UniProt P08069); assay: Insulin-like growth factor-1 receptor (IGF-1R) kinase assay (DELFIA); type: biochemical; details: IGF-1R-GST kinase activity, read-out: IGF1R IC50
T1 construct: cytoplasmic kinase domain of human IGF-1R (amino acids 964-1370); GST (glutathione-S-transferase); made in house; host or cells: High Five insect cells (Invitrogen)
Experimental: Insulin-Like Growth Factor-1 Receptor (IGF-1R)-Kinase Assay
The kinase activity is measured by DELFIA® assay (dissociation-enhanced lanthanide fluorescence immunoassay, Perkin Elmer). […] Enzyme activity is measured in the presence of substances and a control substance. Poly-glutamate-tyrosine peptide (pEY, Sigma Aldrich) and biotinylated pEY (bio-pEY) are used as reaction substrates.
After 40 min at RT the reactions are stopped with 50 μL of stop solution (250 mM EDTA, 20 mM HEPES pH 7.4). 90 μL from each reaction are transferred onto streptavidin-coated 96-well plates. After 120 min incubation at RT the plates are washed three times with 200 μL phosphate-buffered saline (PBS) per well. The plates are incubated for 60 min with 100 μL of europium-coupled antibody against phospho-tyrosine (diluted 1/2000 in Perkin Elmer DELFIA assay buffer) per well. The plates are washed three times with 200 μL per well of DELFIA washing buffer. 100 μL DELFIA Enhancement Solution (Perkin Elmer) is added to each well, and the plates are incubated for 10 min. The fluorescence signal is measured with a Wallac Victor TRF Reader. IC50 values for the inhibition of the IGF-1R-kinase activity are calculated using the programmes Fifty (Version 2) and GraphPad (Version 3.0).

T1 sequence (P08069 964-1367 limits assumed): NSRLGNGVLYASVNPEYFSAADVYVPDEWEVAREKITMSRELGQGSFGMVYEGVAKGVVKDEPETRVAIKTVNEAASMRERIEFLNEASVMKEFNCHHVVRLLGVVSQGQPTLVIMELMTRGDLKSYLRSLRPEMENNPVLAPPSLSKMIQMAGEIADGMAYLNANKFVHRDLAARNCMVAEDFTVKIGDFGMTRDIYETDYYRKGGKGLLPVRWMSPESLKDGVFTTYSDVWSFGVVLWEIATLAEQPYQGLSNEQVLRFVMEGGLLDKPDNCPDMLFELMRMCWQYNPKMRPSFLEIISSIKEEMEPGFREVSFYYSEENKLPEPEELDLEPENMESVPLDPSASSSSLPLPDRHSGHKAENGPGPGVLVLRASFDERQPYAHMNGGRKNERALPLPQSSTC

In order of rising IC50:
1. COCCNC1CCN(c2ccc(Nc3ncc(C(F)(F)F)c(NCc4cccc5c4C(C)(C)C(=O)N5)n3)c(OC)c2)CC1 [Example I-167]  0.2 nM
2. COCCCN(C)C1CCN(c2ccc(Nc3ncc(C(F)(F)F)c(NCc4cccc5c4C(C)(C)C(=O)N5)n3)c(OC)c2)CC1 [Example I-168]  0.2 nM
3. COc1cc(N2CCC(N(C)CCO)CC2)ccc1Nc1ncc(C(F)(F)F)c(NCc2cccc3c2C(C)(C)C(=O)N3)n1 [Example I-169]  0.26 nM
4. COc1cc(N2CCC(N3CCC(OC)CC3)CC2)ccc1Nc1ncc(C(F)(F)F)c(NCc2cccc3c2C(C)(C)C(=O)N3)n1 [Example I-170]  0.33 nM
5. COc1cc(N2CCC(N3CCOCC3)CC2)ccc1Nc1ncc(C(F)(F)F)c(NCc2cccc3c2C(C)(C)C(=O)N3)n1 [Example I-171]  0.38 nM
6. COc1cc(N2CCC(N3CC[C@H](O)C3)CC2)ccc1Nc1ncc(C(F)(F)F)c(NCc2cccc3c2C(C)(C)C(=O)N3)n1 [Example I-172]  0.4 nM
7. COc1cc(C2CCN(C(C)C)CC2)ccc1Nc1ncc(C(F)(F)F)c(NCc2cccc3c2C(C)(C)C(=O)N3)n1 [Example I-159]  0.41 nM
8. COc1cc(N2CCC(NCC(C)(C)OC)CC2)ccc1Nc1ncc(C(F)(F)F)c(NCc2cccc3c2C(C)(C)C(=O)N3)n1 [Example I-173]  0.46 nM
9. CCN1CCN(c2ccc(Nc3ncc(C(F)(F)F)c(NCc4cccc5c4C(C)(C)C(=O)N5)n3)c(OC)c2)CC1 [Example I-157]  0.61 nM
10. COc1cc(N2CCC(N3CC[C@@H](O)C3)CC2)ccc1Nc1ncc(C(F)(F)F)c(NCc2cccc3c2C(C)(C)C(=O)N3)n1 [Example I-174]  0.81 nM
11. COCCN(C)C1CCN(c2ccc(Nc3ncc(C(F)(F)F)c(NCc4cccc5c4C(C)(C)C(=O)N5)n3)c(OC)c2)CC1 [Example I-175]  0.87 nM
12. CN1CCC(c2ccc(Nc3ncc(Cl)c(NCc4cccc5c4C4(CC4)C(=O)N5)n3)cc2)CC1 [Example I-161]  0.96 nM
13. COc1cc(N2CCC(N3CCC3)CC2)ccc1Nc1ncc(C(F)(F)F)c(NCc2cccc3c2C(C)(C)C(=O)N3)n1 [Example I-176]  0.98 nM
14. COc1cc(N2CCN(C3CCC3)CC2)ccc1Nc1ncc(C(F)(F)F)c(NCc2cccc3c2C(C)(C)C(=O)N3)n1 [Example I-155]  1 nM
15. COc1cc(N2CCC(N3CCC(O)CC3)CC2)ccc1Nc1ncc(C(F)(F)F)c(NCc2cccc3c2C(C)(C)C(=O)N3)n1 [Example I-177]  1 nM
16. CCN1CC2CC1CN2c1ccc(Nc2ncc(C(F)(F)F)c(NCc3cccc4c3C(C)(C)C(=O)N4)n2)c(OC)c1 (stereo not shown) [Example I-153]  2 nM
17. COc1cc(N2CCN(C3CCN(C(C)=O)CC3)CC2)ccc1Nc1ncc(C(F)(F)F)c(NCc2cccc3c2C(C)(C)C(=O)N3)n1 [Example I-158]  2 nM
18. COc1cc(N2CCN(CC3CC3)CC2)ccc1Nc1ncc(C(F)(F)F)c(NCc2cccc3c2C(C)(C)C(=O)N3)n1 [Example I-162]  2 nM
19. COc1cc(N2CCC(N(C)CCN(C)C)CC2)ccc1Nc1ncc(C(F)(F)F)c(NCc2cccc3c2CC(=O)N3)n1 [Example I-178]  2 nM
20. COCCNC1CCN(c2ccc(Nc3ncc(C(F)(F)F)c(NCc4cccc5c4CC(=O)N5)n3)c(OC)c2)CC1 [Example I-179]  2 nM
21. COc1cc(N2CCC(N3CCCC3)CC2)ccc1Nc1ncc(C(F)(F)F)c(NCc2cccc3c2C(C)(C)C(=O)N3)n1 [Example I-180]  2 nM
22. COc1cc(N2CCC(N(C)C)CC2)ccc1Nc1ncc(C(F)(F)F)c(NCc2cccc3c2C(C)(C)C(=O)N3)n1 [Example I-181]  2 nM
23. CC1(C)C(=O)Nc2cccc(CNc3nc(Nc4ccc(C5CCN(CCO)CC5)cc4)ncc3Cl)c21 [Example I-205]  2 nM
24. CNC(=O)CN1CCC(c2ccc(Nc3ncc(Cl)c(NCc4cccc5c4C(C)(C)C(=O)N5)n3)c(C)c2)CC1 [Example I-219]  2 nM
25. CCN1CCC(NC(=O)c2ccc(Nc3ncc(C(F)(F)F)c(NCc4cccc5c4C(C)(C)C(=O)N5)n3)c(OC)c2)CC1 [Example I-225]  2 nM
26. COc1cc(N2CCC(C(=O)NC3CCN(C)CC3)CC2)ccc1Nc1ncc(C(F)(F)F)c(NCc2cccc3c2C(C)(C)C(=O)N3)n1 [Example I-226]  2 nM
27. COc1cc(N2CCC(N3CCC(N(C)C)CC3)CC2)ccc1Nc1ncc(C(F)(F)F)c(NCc2cccc3c2CC(=O)N3)n1 [Example I-182]  3 nM
28. COc1cc(N2CCC(NCCCN(C)C)CC2)ccc1Nc1ncc(C(F)(F)F)c(NCc2cccc3c2CC(=O)N3)n1 [Example I-183]  3 nM
29. COc1cc(N2CCN(C3COC3)CC2)ccc1Nc1ncc(C(F)(F)F)c(NCc2cccc3c2C(C)(C)C(=O)N3)n1 [Example I-156]  4 nM
30. COc1cc(N2CCN(CC3CC3)CC2)ccc1Nc1ncc(C(F)(F)F)c(NCc2cccc3c2CC(=O)N3)n1 [Example I-165]  4 nM
31. COc1cc(N2CCC(N(C)C)CC2)ccc1Nc1ncc(C(F)(F)F)c(NCc2cccc3c2CC(=O)N3)n1 [Example I-184]  4 nM
32. COc1cc(N2CCC(N(C)CCCN(C)C)CC2)ccc1Nc1ncc(C(F)(F)F)c(NCc2cccc3c2CC(=O)N3)n1 [Example I-185]  4 nM
33. COc1cc(N2CCC(N(C)CCO)CC2)ccc1Nc1ncc(C(F)(F)F)c(NCc2cccc3c2CC(=O)N3)n1 [Example I-186]  4 nM
34. CNC1CCN(c2ccc(Nc3ncc(C(F)(F)F)c(NCc4cccc5c4CC(=O)N5)n3)c(OC)c2)CC1 [Example I-187]  4 nM
35. COc1cc(N2CCC(N3CCC(O)CC3)CC2)ccc1Nc1ncc(C(F)(F)F)c(NCc2cccc3c2CC(=O)N3)n1 [Example I-188]  5 nM
36. COc1cc(N2CCC(N3CCCC3)CC2)ccc1Nc1ncc(C(F)(F)F)c(NCc2cccc3c2CC(=O)N3)n1 [Example I-189]  5 nM
37. CNC(=O)CN1CCC(c2ccc(Nc3ncc(Cl)c(NCc4cccc5c4C(C)(C)C(=O)N5)n3)cc2)CC1 [Example I-206]  5 nM
38. COc1cc(N2CCC(N3CCN(C4CC4)CC3)CC2)ccc1Nc1ncc(C(F)(F)F)c(NCc2cccc3c2CC(=O)N3)n1 [Example I-190]  6 nM
39. COc1cc(N2CCC(NCCO)CC2)ccc1Nc1ncc(C(F)(F)F)c(NCc2cccc3c2CC(=O)N3)n1 [Example I-191]  6 nM
40. COc1cc(N2CCC(N3CCC(OC)CC3)CC2)ccc1Nc1ncc(C(F)(F)F)c(NCc2cccc3c2CC(=O)N3)n1 [Example I-192]  6 nM
41. COc1cc(N2CCC(N3CCN(C4CCN(C)CC4)CC3)CC2)ccc1Nc1ncc(C(F)(F)F)c(NCc2cccc3c2CC(=O)N3)n1 [Example I-193]  7 nM
42. COc1cc(N2CCC(NCCN(C)C)CC2)ccc1Nc1ncc(C(F)(F)F)c(NCc2cccc3c2CC(=O)N3)n1 [Example I-194]  7 nM
43. COc1cc(N2CCC(N3CCC(C#N)CC3)CC2)ccc1Nc1ncc(C(F)(F)F)c(NCc2cccc3c2CC(=O)N3)n1 [Example I-195]  7 nM
44. COc1cc(N2CCC(N3CCOCC3)CC2)ccc1Nc1ncc(C(F)(F)F)c(NCc2cccc3c2CC(=O)N3)n1 [Example I-196]  8 nM
45. COCCN(C)C1CCN(c2ccc(Nc3ncc(C(F)(F)F)c(NCc4cccc5c4CC(=O)N5)n3)c(OC)c2)CC1 [Example I-197]  9 nM
46. CCOC(=O)N1CCC(N2CCN(c3ccc(Nc4ncc(C(F)(F)F)c(NCc5cccc6c5C(C)(C)C(=O)N6)n4)c(OC)c3)CC2)CC1 [Example I-163]  10 nM
47. CC1(C)C(=O)Nc2cccc(CNc3nc(Nc4ccc(C5CCN(CCS(C)(=O)=O)CC5)cc4)ncc3Cl)c21 [Example I-207]  10 nM
48. CCOC(=O)N1CCC(N2CCN(c3ccc(Nc4ncc(C(F)(F)F)c(NCc5cccc6c5CC(=O)N6)n4)c(OC)c3)CC2)CC1 [Example I-166]  11 nM
49. COc1cc(N2CCC(N3CCN(C(C)C)CC3)CC2)ccc1Nc1ncc(C(F)(F)F)c(NCc2cccc3c2CC(=O)N3)n1 [Example I-198]  11 nM
50. COc1cc(N2CCC(N3CCC(F)(F)CC3)CC2)ccc1Nc1ncc(C(F)(F)F)c(NCc2cccc3c2CC(=O)N3)n1 [Example I-199]  11 nM
51. COc1cc(N2CC3CC2CN3C2COC2)ccc1Nc1ncc(C(F)(F)F)c(NCc2cccc3c2C(C)(C)C(=O)N3)n1 (stereo not shown) [Example I-154]  13 nM
52. COc1cc(N2CCC(N3CCN(C4CCOCC4)CC3)CC2)ccc1Nc1ncc(C(F)(F)F)c(NCc2cccc3c2CC(=O)N3)n1 [Example I-200]  13 nM
53. COc1cc(N2CCN(Cc3ccco3)CC2)ccc1Nc1ncc(C(F)(F)F)c(NCc2cccc3c2C(C)(C)C(=O)N3)n1 [Example I-164]  14 nM
54. COc1cc(N2CCN(CCO)CC2)ccc1Nc1ncc(C(F)(F)F)c(NCc2cccc3c2CC(=O)N3)n1 [Example I-223]  18 nM
55. COCCN1CCN(c2ccc(Nc3ncc(C(F)(F)F)c(NCc4cccc5c4CC(=O)N5)n3)c(OC)c2)CC1 [Example I-224]  18 nM
56. COc1cc(N2CCC(N3CCN(C(C)=O)CC3)CC2)ccc1Nc1ncc(C(F)(F)F)c(NCc2cccc3c2CC(=O)N3)n1 [Example I-201]  20 nM
57. COc1cc(N2CCC(N3CCN(C)CC3)CC2)ccc1Nc1ncc(C(F)(F)F)c(NCc2cccc3c2CC(=O)N3)n1 [Example I-202]  24 nM
58. COc1cc(N2CCN(CCF)CC2)ccc1Nc1ncc(C(F)(F)F)c(NCc2cccc3c2CC(=O)N3)n1 [Example I-222]  32 nM
